Experimental data as given in PubChem BioAssay AID652194 (Johns Hopkins Ion Channel Center, 2013).
Calls of active or inactive are those of the source.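 How the source made its calls: active means hERG flux cut by over 30% at some tested dose, with a fitted dose response curve; inactive means no hERG inhibition at any dose or no curve.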

Target: Voltage-gated inwardly rectifying potassium channel KCNH2 (Homo sapiens) (UniProt Q12809)
Assay: hERG channel inhibition in selectivity testing, SAR follow-up, selectivity assay for TASK1 inhibitor project, FluxOR thallium flux, concentration-response, CHO cells (AID 652194)
Details: hERG-expressing cells, FluxOR thallium flux fluorescence; at 30 µM (top of the series)

Voltage-gated inwardly rectifying potassium channel KCNH2 (Homo sapiens), sequence (Q12809 whole entry, looked up): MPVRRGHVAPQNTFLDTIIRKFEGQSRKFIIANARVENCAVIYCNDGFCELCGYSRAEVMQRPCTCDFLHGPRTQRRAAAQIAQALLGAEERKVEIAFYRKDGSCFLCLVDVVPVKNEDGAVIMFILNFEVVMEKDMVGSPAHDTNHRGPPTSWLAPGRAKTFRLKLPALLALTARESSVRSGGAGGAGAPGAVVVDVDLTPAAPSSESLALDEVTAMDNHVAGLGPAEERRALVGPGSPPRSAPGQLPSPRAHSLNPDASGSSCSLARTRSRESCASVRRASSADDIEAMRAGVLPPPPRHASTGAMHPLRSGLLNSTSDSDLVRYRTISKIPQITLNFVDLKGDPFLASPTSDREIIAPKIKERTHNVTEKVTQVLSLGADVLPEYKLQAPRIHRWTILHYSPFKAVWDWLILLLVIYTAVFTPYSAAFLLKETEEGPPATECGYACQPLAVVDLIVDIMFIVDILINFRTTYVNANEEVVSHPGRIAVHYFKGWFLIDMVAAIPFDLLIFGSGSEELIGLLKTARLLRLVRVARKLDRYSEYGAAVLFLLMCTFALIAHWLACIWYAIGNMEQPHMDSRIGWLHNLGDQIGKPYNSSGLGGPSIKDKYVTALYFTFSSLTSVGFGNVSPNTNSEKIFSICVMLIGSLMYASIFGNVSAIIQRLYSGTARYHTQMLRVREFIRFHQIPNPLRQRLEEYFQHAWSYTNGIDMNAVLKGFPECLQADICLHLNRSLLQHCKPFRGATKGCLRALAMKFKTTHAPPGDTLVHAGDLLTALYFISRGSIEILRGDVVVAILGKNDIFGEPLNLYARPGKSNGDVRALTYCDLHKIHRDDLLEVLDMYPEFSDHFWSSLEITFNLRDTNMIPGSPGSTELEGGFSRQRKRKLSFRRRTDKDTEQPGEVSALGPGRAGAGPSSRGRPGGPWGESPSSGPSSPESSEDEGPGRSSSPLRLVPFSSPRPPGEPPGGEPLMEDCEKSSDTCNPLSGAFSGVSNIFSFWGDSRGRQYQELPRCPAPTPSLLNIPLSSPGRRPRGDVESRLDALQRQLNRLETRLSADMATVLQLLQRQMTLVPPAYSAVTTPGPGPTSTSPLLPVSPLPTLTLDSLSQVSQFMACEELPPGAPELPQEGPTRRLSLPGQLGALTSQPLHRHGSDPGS

| SMILES | flux ratio, lower = inhibition |
| --- | --- |
| COc1ccccc1C(=O)Nc1cccc(NC(=O)c2ccccc2)c1 | inactive |
| O=C(Nc1cccc(NC(=O)c2ccc(F)cc2)c1)c1ccccc1 | inactive |
